Measured values: ChEMBL document CHEMBL4033690, “Potential anti-gout constituents as xanthine oxidase inhibitor from the fruits of Stauntonia brachyanthera” (Bioorg Med Chem, 2017)

Target: Xanthine dehydrogenase/oxidase (Homo sapiens, UniProt P47989)
Test: Inhibition of xanthine oxidase (unknown origin) using xanthine as substrate preincubated for 15 mins followed by substrate addition by spectrophotometric method

Chain of Xanthine dehydrogenase/oxidase (P47989 whole entry): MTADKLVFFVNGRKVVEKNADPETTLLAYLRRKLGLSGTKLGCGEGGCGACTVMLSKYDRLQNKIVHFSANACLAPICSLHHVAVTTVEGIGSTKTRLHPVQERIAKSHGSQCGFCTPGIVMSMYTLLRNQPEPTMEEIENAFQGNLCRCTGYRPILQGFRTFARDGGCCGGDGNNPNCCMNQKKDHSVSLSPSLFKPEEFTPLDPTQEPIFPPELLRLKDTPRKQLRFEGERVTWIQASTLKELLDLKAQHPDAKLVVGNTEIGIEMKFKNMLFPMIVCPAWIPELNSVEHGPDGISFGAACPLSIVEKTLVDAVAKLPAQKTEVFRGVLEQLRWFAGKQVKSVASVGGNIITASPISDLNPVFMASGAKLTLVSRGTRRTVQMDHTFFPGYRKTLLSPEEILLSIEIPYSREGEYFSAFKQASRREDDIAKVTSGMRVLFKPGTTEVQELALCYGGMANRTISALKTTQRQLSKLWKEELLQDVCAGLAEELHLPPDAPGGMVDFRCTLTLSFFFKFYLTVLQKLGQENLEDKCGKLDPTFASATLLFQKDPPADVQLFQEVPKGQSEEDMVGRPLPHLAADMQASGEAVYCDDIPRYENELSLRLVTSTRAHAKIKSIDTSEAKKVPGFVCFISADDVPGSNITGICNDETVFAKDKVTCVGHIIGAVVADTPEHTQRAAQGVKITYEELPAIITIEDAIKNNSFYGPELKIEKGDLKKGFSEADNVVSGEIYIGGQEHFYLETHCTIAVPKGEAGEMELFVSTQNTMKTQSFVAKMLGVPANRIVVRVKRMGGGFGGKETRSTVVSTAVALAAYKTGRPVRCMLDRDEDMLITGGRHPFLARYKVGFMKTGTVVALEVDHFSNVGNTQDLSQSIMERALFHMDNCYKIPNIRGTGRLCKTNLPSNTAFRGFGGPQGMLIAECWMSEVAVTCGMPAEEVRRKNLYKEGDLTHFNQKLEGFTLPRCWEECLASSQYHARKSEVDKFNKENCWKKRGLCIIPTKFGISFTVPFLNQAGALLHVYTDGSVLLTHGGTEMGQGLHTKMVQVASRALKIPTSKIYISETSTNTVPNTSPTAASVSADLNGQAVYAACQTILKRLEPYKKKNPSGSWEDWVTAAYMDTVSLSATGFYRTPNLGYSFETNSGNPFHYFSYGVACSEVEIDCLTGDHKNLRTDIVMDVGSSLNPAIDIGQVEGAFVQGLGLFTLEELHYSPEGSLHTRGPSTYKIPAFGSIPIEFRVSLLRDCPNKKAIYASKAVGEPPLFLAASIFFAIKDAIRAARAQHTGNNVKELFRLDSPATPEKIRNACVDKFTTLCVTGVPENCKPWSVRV

**Q.** Which IC50 does the source give for `C=C1CC[C@]2(C(=O)O[C@@H]3O[C@H](CO[C@@H]4O[C@H](CO)[C@@H](O[C@@H]5O[C@@H](C)[C@H](O)[C@@H](O)[C@H]5O)[C@H](O)[C@H]4O)[C@@H](O)[C@H](O)[C@H]3O)CC[C@]3(C)C(=CC[C@@H]4[C@@]5(C)CC[C@H](O[C@@H]6O[C@H](CO)[C@@H](O)[C@H](O[C@@H]7OC[C@H](O)[C@H](O)[C@H]7O[C@@H]7O[C@@H](C)[C@H](O)[C@@H](O)[C@H]7O)[C@H]6O)C(C)(C)[C@@H]5CC[C@]43C)[C@@H]2C1` here?
**A.** > 100 µM

**Q.** `COc1cc(C(=O)OC[C@@]2(O)CO[C@@H](O[C@H]3[C@H](Oc4ccc(C(=O)O)cc4OC)O[C@H](CO)[C@@H](O)[C@@H]3O)[C@@H]2O)ccc1O` was tested. Which IC50 did it give?
**A.** > 100 µM

**Q.** Which IC50 does the source give for `O=c1c(O[C@@H]2O[C@H](CO)[C@@H](O)[C@H](O)[C@H]2O)c(-c2ccc(O)c(O)c2)oc2cc(O)cc(O)c12` [ISOQUERCETIN] here?
**A.** 1.6 µM
